Assay results: patent publication US9238053B2, “Methods for treatment of pain” (Nocicepta LLC, priority 2009, dated 2016)

Key:
NOP receptor = biological target: T1, NOP receptor (Rattus norvegicus, UniProt P35370); assay: Effect of nociceptin antagonist on intranasal nociceptin induced reduction of thermal nociception; format: in vivo; details: subcutaneous 10.0 mg/kg, 45 minutes before i.n. nociceptin (5.0 mg/kg); rat cheek and hindpaw
T1 construct: from tissue; host or cells: whole living male Sprague-Dawley rats (in vivo)
T1 sequence (P35370 whole entry): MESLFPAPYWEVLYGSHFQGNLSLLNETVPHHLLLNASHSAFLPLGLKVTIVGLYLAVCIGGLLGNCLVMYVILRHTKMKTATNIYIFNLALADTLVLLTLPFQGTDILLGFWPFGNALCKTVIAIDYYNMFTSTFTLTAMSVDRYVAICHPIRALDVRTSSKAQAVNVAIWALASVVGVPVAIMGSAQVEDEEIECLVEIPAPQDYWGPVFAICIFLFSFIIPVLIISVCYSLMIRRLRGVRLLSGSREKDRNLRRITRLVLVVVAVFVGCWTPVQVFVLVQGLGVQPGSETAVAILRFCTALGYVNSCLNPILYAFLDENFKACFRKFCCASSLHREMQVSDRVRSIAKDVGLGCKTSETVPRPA
Text: This experiment was to verify the binding site of nociceptin induced analgesia in a thermal nociceptive rodent model.
(A) Groups of six rats per test run were lightly anesthetized with urethane (1.0 g/kg, i.p., titrated to minimal activity in the absence of a stimulus) (Sherman and Loomis et al, 1996). The left and right cheeks and right hindpaw were blackened with India ink to allow even heat distribution.
(B) Each 200-300 g male Sprague-Dawley rat was subjected to varying heat intensities on the left and right check and right hindpaw for selective testing of A-delta vs. C fiber nociception (Yeomans et al., 1996). • For C-fiber testing, the heat intensity was adjusted by altering the supply voltage of a focused projector lamp until a withdrawal latency between 9-13 seconds was observed. […] To reduce the potential for tissue damage, a cut-off latency of 20 seconds was used after which the stimulus was terminated. […]
(E) Withdrawal latencies were measured in response to radiant heat stimulation of the left and right cheeks, followed by similar measurements of response latencies for each hindpaw. […]
The efficacy of nasal application of nociceptin was measured in rats pretreated with subcutaneous nociceptin antagonist in comparison to rats pre-treated with subcutaneous saline vehicle. […]

rats = details: intraperitoneal 3.0 mg/kg or intranasal 4.0 mg/kg, regardless of route
Method: Compounds were administered 20-30 minutes prior to the charcoal meal (2 mL/rat). Rats were sacrificed 30 minutes after receiving the meal. % transit was calculated as the ratio of the travel distance of the charcoal marker divided by the full length of the small intestine multiplied by 100%. Data are presented as the mean±1 SEM. (n=8 Rats/group).
In order to determine whether intransasal N/OFQ, which has a similar analgesic efficacy to that of strong opiates, would also produce constipation, the effects of intranasal N/OFQ on gastric transit time was assessed. […] Stomach and small intestine were immediately removed and both the total length of small intestine and the distance traveled by the charcoal were recorded. Percent transit was calculated as the ratio of charcoal distance divided by total small intestine length multiplied by 100%.

male rats = assay: Facial formalin model of tonic pain (formalin injection into the lip, facial wiping/grooming); format: in vivo; details: rat lip formalin
Method: Time spent grooming was determined over 45 minutes and grouped in 3 minute bins. […] The area under the curve (AUC) for each compound or vehicle was approximated using the trapezodial method. % Reduction=[(Vehicle AUC−Treatment AUC)/Vehicle AUC)]×100%. Data are presented as the mean±1 SEM. (n=6-8 Rats/group).
The paw formalin model is widely used to assess tonic pain efficacy of putative and known analgesic treatments.

Cc1cccc2c1CC[C@@H](CN1CCC(c3c(Cl)cccc3Cl)CC1)C[C@H]2O [SB-612111, (−)-cis-1-methyl-7-[[4-(2,6-dichlorophenyl)piperidin-1-yl]-methyl]-6,7,8,9-tetrahydro-5H-benzocyclohepten-5-ol]
effect on analgesic activity of intranasal nociceptin (NOP receptor): apparent block of the analgesic activity of nociceptin

CN1CC[C@]23c4c5ccc(O)c4O[C@H]2[C@@H](O)C=C[C@H]3[C@H]1C5 [morphine]
effect on intestinal transit (percent transit) (rats): considerable slowing of transit | maximal inhibition of facial wiping behavior (male rats; 3 mg/kg i.n.): 80.2%

CNS(=O)(=O)Cc1ccc2[nH]cc(CCN(C)C)c2c1 [sumatriptan]
inhibition at 42 mg/kg (male rats; ip, 42 mg/kg i.p., read-out: inhibition of facial wiping behavior): 43.8%
